Here are results for 4 substances from EP3221422B1, “COPPER(I) COMPLEXES FOR OPTOELECTRONIC APPLICATIONS” (cynora GmbH, priority 2014, dated 2016).

The data set can be described thus: Solubility tests of copper(I) complexes in organic solvents. Format: physicochemical. Particulars: for Löslichkeit (qualitative): effect of the unsymmetrical ligand m-Tolylphosphin s. As for the experimental part: Bei Koordination an ein Kupferatom könnten die m-Tolyl-Gruppen jeweils auf zwei verschiedene Weisen gedreht vorliegen (Figur 5). Vermutlich wird auf dieses Weise die Packung im Festkörper gestört, wodurch eine höhere Löslichkeit erzielt wird. In der Wärme (60 °C) wurde beispielsweise für Komplex 1-I-s eine Löslichkeit von rund 40 mg mL^-1 erreicht; weitere Löslichkeitsdaten sind in Tabelle 1 aufgeführt.
Komplex 1-I-s zeigt neben einer guten Löslichkeit auch eine besonders hohe Quanteneffizienz, sowohl in Pulver (93%) als auch im Dünnfilm (90%). Interessanterweise kommt es bei der Filmpräparation dieser Verbindung zu nahezu keiner Verschiebung der Emissionswellenlänge (Film: 550 nm, Pulver: 547 nm). Offenbar liegt bereits im Festkörper eine Verzerrung ähnlich der Situation im Film vor. Die Struktur wird, wie oben erläutert wurde, durch die als sterisch anspruchsvolle Gruppen wirkenden Tolylreste stabilisiert. Tabelle 1: Löslichkeitstests für Komplex 1-I-s.

For the substance “(MePyrPHOS)(Tris-m-tolyl-phosphin)2Cu2I2 [Komplex 1-I-s]”, the “Löslichkeit (qualitative)” value is on record as “erhöhte Löslichkeit”. The Löslichkeit result (1-Heptanol, Konzentration: 5 mg/mL) is “Ja (Wärme)”. For the same substance, the Löslichkeit entry (1-Heptanol, Konzentration: 10 mg/mL) was “Ja (Wärme)”. Further, the Löslichkeit entry (1-Heptanol, Konzentration: 2,5 mg/mL) was “Ja”. In addition, the Löslichkeit result (1-Hexanol, Konzentration: 5 mg/mL) is listed as “Ja (Wärme)”. Further, for the setting “1-Hexanol, Konzentration: 10 mg/mL”, the Löslichkeit result is recorded as “Ja (Wärme)”. The Löslichkeit result (1-Hexanol, Konzentration: 2,5 mg/mL) is reported as “Ja”. Moreover, where the note is “Aceton, Konzentration: 5 mg/mL”, the Löslichkeit result is recorded as “Ja”. For the same substance, the Löslichkeit entry (Aceton, Konzentration: 10 mg/mL) is reported as “Ja”. Besides, the Löslichkeit result (Aceton, Konzentration: 2,5 mg/mL) is reported as “Ja”. In addition, under “Acetonitril, Konzentration: 5 mg/mL”, the Löslichkeit entry is “Ja (Wärme)”. For the same substance, the Löslichkeit entry (Acetonitril, Konzentration: 10 mg/mL) is recorded as “Ja (Wärme)”. Moreover, under “Acetonitril, Konzentration: 2,5 mg/mL”, the Löslichkeit result is listed as “Ja”. The Löslichkeit result (Cyclooctan, Konzentration: 5 mg/mL) was “Ja (Wärme)”. Under “Cyclooctan, Konzentration: 10 mg/mL”, the Löslichkeit result was “Nein”. The Löslichkeit result (Cyclooctan, Konzentration: 2,5 mg/mL) is “Ja”. Also, for the setting “Essigester, Konzentration: 5 mg/mL”, the Löslichkeit entry is recorded as “Ja”. For the same substance, the Löslichkeit entry (Essigester, Konzentration: 10 mg/mL) is “Ja”. Moreover, the Löslichkeit result (Essigester, Konzentration: 2,5 mg/mL) is “Ja”. The same substance returned a Löslichkeit (In der Wärme (60 °C), solvent not stated) of around 40 mg/mL. Moreover, the “Löslichkeit (max.)” value (Mesitylen) is on record as at most 20 mg/mL. In addition, the Löslichkeit result (Mesitylen, Konzentration: 5 mg/mL) was “Ja”. Under “Mesitylen, Konzentration: 10 mg/mL”, the Löslichkeit entry was “Ja”. For the same substance, the Löslichkeit result (Mesitylen, Konzentration: 2,5 mg/mL) is on record as “Ja”. In addition, the “Löslichkeit (max.)” value (O-Xylol) was at most 20 mg/mL. For the same substance, under “O-Xylol, Konzentration: 5 mg/mL”, the Löslichkeit entry is recorded as “Ja”. The Löslichkeit result (O-Xylol, Konzentration: 10 mg/mL) was “Ja”. Besides, the Löslichkeit result (O-Xylol, Konzentration: 2,5 mg/mL) is “Ja”. Moreover, under “Tetralin”, the “Löslichkeit (max.)” value is on record as at most 20 mg/mL. Also, the Löslichkeit entry (Tetralin, Konzentration: 5 mg/mL) is listed as “Ja”. Besides, the Löslichkeit result (Tetralin, Konzentration: 10 mg/mL) is “Ja”. The Löslichkeit entry (Tetralin, Konzentration: 2,5 mg/mL) is recorded as “Ja”.

As for “(PyrPHOS)(tris-m-tolyl-phosphin)2Cu2I2 [Komplex 11-I-s]”, the “Löslichkeit (qualitative)” value is on record as “erhöhte Löslichkeit”.

Take “(Tris-(3-methyl-phenyl)phosphin)(4-tBu-pyridin)Cu2Br2 [E-Br-s]”: the “Löslichkeit (qualitative)” value is listed as “erhöhte Löslichkeit”.

“(Tris-(3-methyl-phenyl)phosphin)(4-tBu-pyridin)Cu2I2 [E-I-s]”: the “Löslichkeit (qualitative)” value is listed as “erhöhte Löslichkeit”.
